Among the test systems are CAKI-1 renal; HOP-62 NSCLC; TK-10 renal; UACC-257 melanoma; SF-295 CNS; SK-OV-3 ovarian; COLO 205 colon; K-562 leukemia; MDA-MB-231 breast.
Holding throughout (assay): NCI anticancer screen, dose series, 48 h

From PubChem BioAssay (NCI) come the findings set out here.

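Values below derive from 48-hour exposures of cells grown in 96-well plates, with endpoints linearly interpolated between the two concentrations bracketing the appropriate inhibition level. GI50: concentration for 50% inhibition of growth. TGI marks complete inhibition of growth.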

Turning to `C=C1C(=O)C23[C@H](O)C1CC[C@H]2[C@]12COC3(O)[C@@H](O)[C@@H]1C(C)(C)CC[C@@H]2O`, the TGI was determined as 4.89 µM in the test on CAKI-1 renal; 36.1 µM in the test on HOP-62 NSCLC; 31 µM in the test with TK-10 renal; 29.5 µM in the test with UACC-257 melanoma; 32.2 µM in the test on SF-295 CNS; 31 µM with SK-OV-3 ovarian. In addition, the values for the TGI in the test on COLO 205 colon and in the test with K-562 leukemia were 2.14 µM and 15.6 µM, respectively.
Take `CN(C)c1ccc(/C=C(\NC(=O)c2ccccc2)c2nc3ccc4c(c3[nH]2)C(=O)c2ccccc2C4=O)cc1`: the TGI in the test with CAKI-1 renal, in the test on HOP-62 NSCLC, in the test on TK-10 renal, in the test on UACC-257 melanoma, in the test with SF-295 CNS and in the test with SK-OV-3 ovarian was above 100 µM in each case. The TGI in the test on COLO 205 colon and in the test with K-562 leukemia was above 100 µM each time.
As for `COc1cc2c(c3c1c(=O)c1ccccc1n3C)C=CC(C)(C)O2`, the TGI in the test with CAKI-1 renal, in the test on HOP-62 NSCLC, with TK-10 renal, in the test on UACC-257 melanoma, with SF-295 CNS and with SK-OV-3 ovarian was above 100 µM throughout. The TGI in the test on COLO 205 colon and in the test on K-562 leukemia was above 100 µM each time.
As for `CCOc1cccc2c1N[S@@](=O)S2`, the TGI in the test with CAKI-1 renal, in the test on TK-10 renal, in the test on UACC-257 melanoma, with SF-295 CNS, in the test with SK-OV-3 ovarian and in the test on K-562 leukemia was above 100 µM throughout.
Turning to `CCOc1ccc(N=C2NC(=O)C(CC(=O)Nc3ccccc3[N+](=O)[O-])S2)cc1` (configuration not stated), the TGI in the test on CAKI-1 renal, in the test with TK-10 renal, with UACC-257 melanoma, with SF-295 CNS and in the test on K-562 leukemia was above 100 µM in each case.
In the case of `CC(=O)c1ccc(NC(=O)C(=O)C(C(=O)/C=C/c2ccccc2)C2OC(=O)c3ccccc32)cc1` (configuration not stated), the TGI with CAKI-1 renal, in the test with HOP-62 NSCLC, in the test with TK-10 renal, in the test on UACC-257 melanoma, in the test on SF-295 CNS and in the test on SK-OV-3 ovarian was above 100 µM throughout. The TGI with COLO 205 colon and in the test with K-562 leukemia was above 100 µM throughout.
Turning to `COc1ccc(/C=C2\CCC(CCN(C)C)(C3=CCCC3)C2=O)cc1` (configuration not stated), the TGI was found to be 22.8 µM in the test on CAKI-1 renal; 36 µM in the test on HOP-62 NSCLC; 30.7 µM in the test on TK-10 renal; 30.8 µM with UACC-257 melanoma; 33.4 µM with SF-295 CNS; 25.9 µM with COLO 205 colon. Besides, in the test on K-562 leukemia, the TGI was found to be 41.8 µM.
On to `CCOC(=O)C1Cc2ccc3c4c(ccc(c24)C1)CC(C(=O)OCC)C3`, for which the TGI in the test on HOP-62 NSCLC, in the test with TK-10 renal, with UACC-257 melanoma, with SF-295 CNS, in the test on SK-OV-3 ovarian and with COLO 205 colon was above 100 µM throughout. This compound also displayed a TGI in the test with K-562 leukemia above 100 µM.
For the compound `C[N+](C)(C)CC1CCCCC1=O` (configuration not stated), the TGI was above 100 µM in the test with HOP-62 NSCLC; above 100 µM in the test with TK-10 renal; 30.9 µM in the test on UACC-257 melanoma; above 100 µM in the test on SF-295 CNS; above 100 µM in the test on SK-OV-3 ovarian; 49.3 µM with COLO 205 colon. The compound further displayed a TGI in the test with K-562 leukemia of 64.3 µM.
Regarding `COc1ccc(O)c(C(=O)CCC(=O)O)c1`, the TGI in the test with HOP-62 NSCLC is above 10 µM; with TK-10 renal, above 100 µM; in the test on UACC-257 melanoma, 29 µM; with SF-295 CNS, above 100 µM; in the test with SK-OV-3 ovarian it was above 100 µM; with COLO 205 colon it was above 100 µM. Besides, the TGI in the test on K-562 leukemia is above 100 µM.
For `CN/N=C(/c1nc2ccc([N+](=O)[O-])cc2[nH]c1=O)C(O)c1ccc(C(O)/C(=N\NC)c2nc3ccc([N+](=O)[O-])cc3[nH]c2=O)cc1` (configuration not stated), the TGI in the test on CAKI-1 renal, with HOP-62 NSCLC, in the test on TK-10 renal, in the test on UACC-257 melanoma, with SF-295 CNS and in the test on SK-OV-3 ovarian was above 100 µM in each case. Also, the TGI with COLO 205 colon and in the test on K-562 leukemia was above 100 µM in each case.
`C#CCN(N=O)C(=O)ON1C(=O)CCC1=O`: the TGI with HOP-62 NSCLC, in the test with TK-10 renal, with UACC-257 melanoma, in the test with SF-295 CNS, in the test on SK-OV-3 ovarian and in the test with COLO 205 colon was above 100 µM in each case. Also, the TGI in the test with K-562 leukemia is above 100 µM.
Turning to `CC(=O)/C=C/c1ccc(Nc2c3ccccc3nc3occ(Cl)c23)cc1`, the GI50 in the test on MDA-MB-231 breast is 2.63 µM; in the test with CAKI-1 renal, 0.159 µM; in the test with HOP-62 NSCLC, 19.5 µM; in the test on TK-10 renal, 3.87 µM; in the test with UACC-257 melanoma it was 1.24 µM; in the test with SK-OV-3 ovarian, 8.21 µM. Moreover, the GI50 was 4.46 µM in the test on COLO 205 colon and 2.45 µM in the test with K-562 leukemia. Further, the TGI came out at 9.06 µM in the test with MDA-MB-231 breast; 1.07 µM with CAKI-1 renal; 61.3 µM in the test on HOP-62 NSCLC; 24.8 µM in the test with TK-10 renal; 5.59 µM in the test on UACC-257 melanoma; 65.6 µM in the test with SK-OV-3 ovarian. Moreover, the TGI in the test on COLO 205 colon was 19.5 µM; in the test with K-562 leukemia it was 13.3 µM.
Regarding `OC1=CN=COc2ccccc21`, the TGI in the test with HOP-62 NSCLC, with TK-10 renal, in the test with UACC-257 melanoma, in the test on SF-295 CNS, in the test on SK-OV-3 ovarian and in the test on COLO 205 colon was above 100 µM each time. In the test with K-562 leukemia, this compound showed a TGI above 100 µM.
`COc1cccc(-c2cc(=O)c3cc4c(cc3[nH]2)OCO4)c1`: the TGI in the test with HOP-62 NSCLC was 21.9 µM; with TK-10 renal, 54.5 µM; in the test on UACC-257 melanoma, above 100 µM; with SF-295 CNS, 0.828 µM; with SK-OV-3 ovarian, 1.15 µM; in the test on COLO 205 colon, 0.303 µM. In the test with K-562 leukemia, the TGI is above 100 µM.
In the case of `CC1=Nc2ccccc2SC(c2c(Cl)cccc2Cl)C1` (configuration not stated), the TGI in the test with CAKI-1 renal came to 5.3 µM; in the test on HOP-62 NSCLC, 3.76 µM; in the test on TK-10 renal, 3.89 µM; in the test with UACC-257 melanoma it was 3.3 µM; in the test on SF-295 CNS, 2.79 µM; in the test on SK-OV-3 ovarian it was 6.44 µM. Moreover, the TGI came out at 3.12 µM with COLO 205 colon and 1.71 µM in the test on K-562 leukemia.
As to `COc1ccc(/C=C(\NC(=O)c2ccccc2)c2nc3ccccc3[nH]2)cc1OC`, the TGI with CAKI-1 renal, in the test on HOP-62 NSCLC, in the test with TK-10 renal, in the test with UACC-257 melanoma, with SF-295 CNS and with SK-OV-3 ovarian was above 100 µM in each case. The TGI with COLO 205 colon and in the test with K-562 leukemia was above 100 µM in each case.
